In data set [1] the test system is G. vaginalis (ATCC 14018). Kind of data set: Zone of inhibition on HBT plate lawn. Format: cell-based, Gardnella vaginalis. Conditions: 37° C., 6% CO2, 48 hours. Here is the method: To test the bioactivity of metronidazole film, Gardnella vaginalis (G. vaginilis) (ATCC 14018) was plated on HBT plates to form a lawn. A metronidazole film was placed in the middle of the plated bacteria and plates were incubated at 37° C. with 6% CO2 for 48 hours. Post incubation, the plates were visually inspected for the formation of a zone of inhibition. Placebo films and metronidazole drug substance were prepared and tested in the same manner as the controls. […] This confirms that G. vaginilis growth is inhibited by the presence of both the metronidazole drug substance alone and within the film. On the other hand, G. vaginilis was not affected by the placebo film.
To test the bioactivity of bacterial/metronidazole combination film, G. vaginalis (ATCC 14018) was plated on Human Blood Tween Bilayer (HBT) plates to form a lawn. Bacteria/metronidazole film was placed in the middle of the HBT plated bacteria and plates were incubated at 37° C. with 6% CO2 for 48 hours. Post incubation, the plates were visually inspected for the formation of a zone of inhibition and L. jensenii growth. Placebo films, metronidazole drug substance, and bacterial loaded film were prepared and tested in the same manner as the controls. […] Therefore, the desired in vivo antimicrobial and probiotic effects of the combination film were confirmed in vitro. […]

In the next data set the test system is human cervical explants. The conditions noted are these: cited from earlier work.
Another data set relates to rabbit model. The conditions noted are these: in vivo rabbit model; cited from earlier work.
The test system of data set [2] is wild type and resistant mutant HIV. The conditions noted are these: cited from earlier work.
For data set [3] the following is noted: pH 9; cited from earlier work.
Another data set relates to TZM-bl cells. Format: cell-based.

Results on three compounds are retold here after US11672757B2, “Hot melt extrusion for pharmaceutical vaginal film products” (UNIVERSITY OF PITTSBURGH-OF THE COMMONWEALTH SYSTEM OF …, priority 2017, dated 2023).

≈ marks a conversion by molar mass, not a printed value.

Description for TZM-bl cells: A DPV film was dissolved in 2 mL of saline and ten-fold serial dilutions were made. The DPV drug substance stock solution (1000 nM) was mixed in DMSO and serially diluted in DMEM with 10% BSA supplemented with antibiotics, which is the medium used in the TZM-bl assay. All dilution samples were added in triplicates to the TZM-bl cells that were plated. […] For cellular toxicity evaluation, similar set up of the experiment was conducted. Except that for toxicity study, the cells were not exposed to the virus. In this study the cells were exposed to CellTiter-Glo, and luminescence signal was measured. Cellular viability was determined based on the deviation from the cell-only control (Nixon, B., et al., Griffithsin protects mice from genital herpes by preventing cell-to-cell spread. J. Virol., 2013, 87(11):6257-6269).

As for `Cc1ncc([N+](=O)[O-])n1CCO` [Metronidazole], in data set [1], the zone of inhibition is approximately 1.5 cm.
Take Griffithsin [GRFT]: the “safety” value with human cervical explants and with rabbit model was “safe” in each case.
For the compound `Cc1cc(C)c(Nc2ccnc(Nc3ccc(C#N)cc3)n2)c(C)c1` [DPV, Dapivirine], in data set [2], the 50% effective concentration (EC50) is 0.3 ng/mL (≈ 0.911 nM) and the EC90 was 0.9 ng/mL (≈ 2.73 nM). For the same compound, in data set [3], the logP is 5.27. Moreover, the “cellular toxicity” value in the data set with TZM-bl cells is “no cellular toxicity”.
